Reference: patent US20210308131A1, “Treatment Regimen” (GlaxoSmithKline Intellectual Property Development Limited, priority 2020, published 2021)

How the values were obtained:
[1] = tested on: NG isolate from the Phase 2 clinical trial with ParC D86N mutation; type: cell-based, Neisseria gonorrhoeae
Method: 10 mL of an initial bacterial density of 10^6 colony forming units (CFU)/mL was inoculated into the hollow-fiber cartridge (Fibercell Systems, Frederick, Md.), utilizing modified FB medium.
Samples were collected for observation of simulated pharmacokinetic profiles and enumeration of bacterial burden over the study duration. All bacterial samples were plated on drug-free and agar supplemented with 2×the agar MIC value of each respective challenge compound.

[2] = Single-dose PK (saliva, urine, plasma) in participants with hepatic impairment and matched controls; type: in vivo, human; conditions: 1500 mg orally
Method: (§1) Gepotidacin exposures were assessed in plasma and other matrices, such as urine, saliva, epithelial lining fluid (ELF), Alveolar Macrophages (AM), cervix, rectum and pharynx, as follows: • 1. […] Urine, plasma, cervix, rectum and pharynx swabs: • In a Phase 2a, single-center, single-arm, open-label study in the Unites States from July 2018 to January 2019 (see Overcash et al., Open Forum Infectious Diseases, Volume 6, Issue Supplement 2, October 2019, Page S539, https://doi.org/10.1093/ofid/ofz360.1343, incorporated herein by reference in its entirety), a total of 22 female participants with uncomplicated Urinary Tract Infection (uUTI) were enrolled and evaluated for pharmacokinetics (PK), safety, and clinical efficacy. […] Gepotidacin exposures in urine, cervix, rectum and pharynx were assessed.
(§2) Saliva, Urine and Plasma concentrations were determined after administration of gepotidacin 750 mg IV (healthy and renally impaired subjects) and 1500 mg orally (healthy and hepatically impaired subjects, as well as uUTI patients). […]

[3] = Plasma and pulmonary (ELF, AM) pharmacokinetics after intravenous gepotidacin in healthy adult subjects; type: in vivo, human; conditions: single IV infusion 1000 mg over 2 hours
Method: as §1
Plasma, Epithelial Lining Fluid (ELF) and Alveolar Macrophage (AM) PK were assessed following a single IV infusion of 1000 mg gepotidacin over 2 hours. […]

[4] = Safety and pharmacokinetics in healthy adults and adolescents (Example 3); type: in vivo, human
Method: Healthy adults and adolescents within the age ranges of 19-64 and 12-17 years old, respectively, participated in the study.
In Part 1 of the study, gepotidacin was administered with food to healthy adults 18 years) in period 1 (1500 mg oral single dose), followed by period 2 (3000 mg×2 oral doses Q12 h) and period 3 (3000 mg×2 oral doses Q6 h).
In Part 2 of the study, gepotidacin was administered with food to adolescents (12 to <18 years) at the same dose regimens as period 1 (1500 mg oral single dose) and period 3 (3000 mg×2 oral doses Q6 h).

Neisseria gonorrhoeae = conditions: cited from earlier work
[5] = Phase 2a study in female participants with uUTI: urine, plasma, cervix, rectum and pharynx swab PK and safety; type: in vivo, human
Method: as §1, §2

[6] = Single-dose PK (saliva, urine, plasma) in subjects with renal impairment and matched controls; type: in vivo, human
Method: Gepotidacin exposures were assessed in plasma and other matrices, such as urine, saliva, epithelial lining fluid (ELF), Alveolar Macrophages (AM), cervix, rectum and pharynx, as follows: • 1. Plasma, Epithelial Lining Fluid (ELF) and Alveolar Macrophage (AM) samples: A study to evaluate plasma and pulmonary pharmacokinetics (PK) following intravenous administration of gepotidacin in healthy adult subjects was conducted (see M Hossain, EF Dumont. Population Pharmacokinetic Modeling of Plasma and Epithelial Lining Fluid Data for a Novel Antimicrobial Compound. 54th Annual Interscience Conference on Antimicrobial Agents and Chemotherapy Meeting, 5-9 September 2014, Washington, D.C., USA, incorporated herein by reference in its entirety) • 2. Saliva, Urine and plasma samples: • a. A single-dose study to assess the PK of oral gepotidacin in male and female adult participants with varying degrees of hepatic impairment and in matched control participants with normal hepatic function (J. Hands et al. Pharmacokinetics of Gepotidacin in Subjects with Hepatic Impairment. ID Week, 2-6 Oct. 2019, Washington D.C., USA, incorporated herein by reference in its entirety) • b. A single-dose study to assess the PK of gepotidacin in adult subjects with varying degrees of renal impairment and in matched control subjects with normal renal function • 3. Urine, plasma, cervix, rectum and pharynx swabs: • In a Phase 2a, single-center, single-arm, open-label study in the Unites States from July 2018 to January 2019 (see Overcash et al., Open Forum Infectious Diseases, Volume 6, Issue Supplement 2, October 2019, Page S539, https://doi.org/10.1093/ofid/ofz360.1343, incorporated herein by reference in its entirety), a total of 22 female participants with uncomplicated Urinary Tract Infection (uUTI) were enrolled and evaluated for pharmacokinetics (PK), safety, and clinical efficacy. Participants were confined to the clinic from baseline (Days −1 to 1 predose) through on-therapy (Days 1 to 5) and returned as outpatients for test-of-cure (TOC; Days 10 to 13) and follow-up (Day 28±3). Participants received oral gepotidacin 1,500 mg twice daily (BID) for 5 days. […] The majority of participants were white, age ranged from 19 to 60 years, and body mass index ranged from 20.9 to 37.9 kg/m^2. The number of past uUTI episodes ranged from 0 to 10 over the past 12 months across participants; the majority of participants reported episodes. […] Gepotidacin exposures in urine, cervix, rectum and pharynx were assessed.
as §2

[7] = Period 1, 1500 mg oral single dose

CO/N=C(\C(=O)N[C@@H]1C(=O)N2C(C(=O)O)=C(CSc3nc(=O)c(=O)[nH]n3C)CS[C@H]12)c1csc(N)n1 [ceftriaxone, reference compound]
performance of control in hollow fibre infection model ([1]; simulated ciprofloxacin 0.5 g oral, ceftriaxone 0.25 g intramuscular, isolate ciprofloxacin-resistant, ceftriaxone-susceptible): performed as expected

O=c1ccc2ncc(=O)n3c2n1C[C@H]3CN1CCC(NCc2cc3c(cn2)OCCC3)CC1 [gepotidacin, (2R)-2-({4-[(3,4-Dihydro-2H-pyrano[2,3-c]pyridin-6-ylmethyl)amino]-1-piperidinyl}methyl)-1,2-dihydro-3H,8H-2a,5,8a-triazaacenaphthylene-3,8-dione]
urinary exposure (AUC[0-48]) relative to matched healthy controls ([2]; moderate hepatic impairment): approximately 3.2 fold | urinary exposure (AUC[0-48]) relative to matched healthy controls ([2]; severe hepatic impairment): ~3.9 fold | AM AUC(0-12) relative to ELF [3]: ~97 fold | AM Cmax relative to ELF [3]: approximately 120 fold | tolerability ([4]; 1500 mg oral single dose, adults and adolescents, few mild GI AEs): generally well tolerated | maximum concentration (Cmax), adolescents compared to adults [4, 7]: similar | median area under the curve (AUC), adolescents compared to adults [4, 7]: slightly higher | AUC following the second dose, adolescents versus adults ([4]; Period 3, 3000 mg x 2 Q6 h): higher | Cmax following the second dose, adolescents versus adults ([4]; Period 3, 3000 mg x 2 Q6 h): similar | subjects above the Cmax value of potential clinical concern ([4]; adolescents, 3000 mg x 2 Q6 h): 58% | AUC0-t following the first dose, Q12 h versus Q6 h ([4]; adults, 3000 mg): similar | accumulation ratios, Q6 h compared to Q12 h ([4]; adults, 3000 mg x 2): Higher | subjects above the Cmax value of potential clinical concern ([4]; adults, 3000 mg x 2 Q6 h): 46% | subjects above the Cmax value of potential clinical concern ([4]; adults, 3000 mg x 2 Q12 h): 15% | safety issues related to QT or AchE-I ([4]; in vivo): No observed safety issues related to QT or AchE-I | doses preventing amplification of resistance within the system ([1]; gepotidacin-resistant subpopulation on Day 7): 4.5 g | total daily doses that prevented resistance amplification to gepotidacin ([1]; including 2 x 3 g doses 8 or 12 hours apart): ≥ 4500 mg | doses sterilizing the system over the seven-day period ([1]; simulated single oral dose free-drug plasma profiles, 0.75 to 12 g): ≥ 4.5 g | microbiological successes (bacterial eradication) (Neisseria gonorrhoeae; number of the 8 participants with D86N-positive baseline urogenital NG isolates): 5 | efficacy (bacterial eradication) against urogenital infection caused by NG (Neisseria gonorrhoeae; single oral doses of 1.5 g and 3 g): ≥ 95% | safety signals (Neisseria gonorrhoeae; single oral doses of 1500 and 3000 mg): no unexpected safety signals | participants who failed therapy at the urogenital body site (Neisseria gonorrhoeae; total number, single oral 1500 or 3000 mg): 3 | rank order of gepotidacin free-drug concentrations ([5]; 1500 mg BID, uUTI patients, swabs and plasma): highest in rectal tissue; followed by cervical tissue, which was similar to plasma concentrations; followed by pharyngeal tissue | discontinuations due to adverse events ([5]; oral 1,500 mg BID for 5 days, 22 female uUTI participants): no discontinuations due to adverse events | gepotidacin dose removed in the urine (fe %) ([6]; ESRD subjects not on hemodialysis): 7.9% | gepotidacin dose excreted in the urine ([6]; ESRD subjects on hemodialysis): Less than 2% | gepotidacin dose removed in the urine (fe %) ([6]; moderate renal impairment subjects): 22.1% | gepotidacin dose removed in the urine (fe %) ([6]; normal renal function subjects): 37.4%
